The text below walks through data of PubChem BioAssay AID2305 (GlaxoSmithKline (GSK), 2010).

For orientation: IC50 means the concentration needed to halve the response being measured.

For this test, the system named is P. falciparum 3D7 growth, pLDH absorbance. As to the kind of experiment: P. falciparum 3D7 growth inhibition, dose response, strain 3D7 (AID 2305).

`O=C(/C=C/c1ccc(Cl)c(Cl)c1)NCCCCCN1CCC(NC(=O)Nc2ccc(Cl)c(C(F)(F)F)c2)CC1`: the IC50 was 650 nM.

`COc1cccc2c(NN=Cc3cccc([N+](=O)[O-])c3)ccnc12` came in with an IC50 of 750 nM.

Take `CCNc1cc(C(=O)N[C@@H](Cc2ccccc2)[C@H](O)CNC2CCC(C)(C)CC2)cc(N2CCCCS2(=O)=O)c1`: the IC50 is 650 nM.

In the case of `Cc1[nH]c(C)c(-c2ccc(Oc3ccc(F)cc3)cc2)c(=O)c1Br`, the IC50 was 50 nM. Compared with the last compound, the IC50 is about 13-fold lower.

For `CC(C)(C)c1ccc(CN2CCC(NC(=O)c3cc(-c4cccc(C(F)(F)F)c4)cs3)C2)cc1` (stereo not drawn), the IC50 was found to be 810 nM.

Consider `O=C(NCCCN1CCC(N2CCCCC2)CC1)C1=Cc2cc(Br)ccc2OC1`, for which the IC50 turned out to be 850 nM.

`O=C(Cn1c(CCc2cccc(F)c2F)nc(=O)c2cccnc21)N(Cc1ccc(-c2ccc(C(F)(F)F)cc2)cc1)C1CCN(C2CCSCC2)CC1`: the IC50 was 230 nM.

`O=C(N[C@@H](Cc1ccccc1)C(=O)NC1CCCCCC1)c1ccc(O)c(-c2cccc(C(F)(F)F)c2)c1` returned an IC50 of 730 nM.

`CCCC(=O)Nc1ccc(OCCN(Cc2ccccc2OC(F)(F)F)c2ccc(C(F)(F)F)c(C#N)c2)cc1`: the IC50 turned out to be 790 nM.

Turning to `O=S(=O)(c1ccccc1)C1CC1`, the IC50 was determined as 720 nM. This IC50 and that of the compound before are within 1.5-fold of each other.

`O=S(=O)(c1ccccc1OC(F)(F)F)C1C[C@H]2CC[C@@H](C1)N2S(=O)(=O)c1cccc(C(F)(F)F)c1` (stereo partly drawn) registered an IC50 of 670 nM.

As to `O=C(CCn1c2ccccc2c2ccccc21)NN=Cc1ccco1`, the IC50 stood at 590 nM. The IC50 values of the last two compounds are within 1.5-fold of each other.

In turn, `CCN1CCN(c2cc(C)c3cc(NC(=O)c4ccc([N+](=O)[O-])c(C)c4)ccc3n2)CC1` registered an IC50 of 650 nM.

Compound `Cc1cc(N2CCOCC2)nc2ccc(NC(=O)c3ccc(Cl)c([N+](=O)[O-])c3)cc12` showed an IC50 of 1030 nM.

For the compound `Cc1[nH]c(C)c(-c2ccc(Oc3ccc(Cl)cc3)cc2)c(=O)c1C`, the IC50 stood at 390 nM.

In turn, `CC(C)CNCc1cccc(-c2ccc(CN(C(=O)NC3CCCCC3)C3CCN(Cc4ccccc4)CC3)cc2)c1` had an IC50 of 760 nM.

`CCc1cn(CCCOC)c2ccc(C(=O)N[C@@H](Cc3ccccc3)[C@H](O)CNCc3cccc(C(F)(F)F)c3)cc12` came in with an IC50 of 190 nM. This IC50 lies about 4-fold lower than the previous one.

In the case of `O=C(CSc1n[nH]c(-c2ccccc2Br)n1)c1c[nH]c2ccccc12`, the IC50 came to 980 nM.

As to `C[C@H](NC(=O)c1c(CN2CCC(NC(=O)CC(C)(C)C)CC2)c(-c2cccs2)nc2ccccc12)C1CCCCC1`, the IC50 amounted to 950 nM.

In the case of `O=C(NC1CCN(CCCc2ccccc2)CC1)c1ccc(-c2cccc(C(F)(F)F)c2)s1`, the IC50 is 890 nM.

Regarding `NS(=O)(=O)c1ccc(CNc2ccc3ncc(-c4ccc(Cl)cc4)n3n2)cc1`, the IC50 was determined as 280 nM.

As for `O=[N+]([O-])c1ccc2ncnc(Nc3ccc(F)c(Cl)c3)c2c1`, the IC50 came to 710 nM.

Take `CCN(CC)CCN(Cc1ccc(-c2ccc(C(F)(F)F)cc2)cc1)C(=O)Cn1c(CCc2ccc(F)c(F)c2F)nc(=O)c2ccccc21`: the IC50 was determined as 790 nM.

`Cc1[nH]c(C)c(-c2ccc(Oc3cccc(C(F)(F)F)c3)cc2)c(=O)c1Br` showed an IC50 of 10 nM.

`O=C(Cc1ccccc1)NC(c1ccco1)c1cc(Cl)c2cccnc2c1O` (stereo not drawn) registered a half-inhibitory concentration (IC50) of 690 nM.

The compound `COc1cc2c(cc1C(F)(F)F)N(C(=O)Nc1cc(-c3ccncc3)cc(-c3cccnc3)c1)CC2` returned an IC50 of 620 nM.

The compound `CNC(=O)c1cncc(/C=C/c2ccccc2S(N)(=O)=O)c1` returned an IC50 of 690 nM.

Compound `CN(CCC1CCN(C(=O)/C=C/c2ccc(Cl)c(Cl)c2)CC1)C1CCC(c2c[nH]c3ccccc23)CC1` (stereo not drawn) returned an IC50 of 770 nM. This IC50 and that of the compound before are within 1.5-fold of each other.

Take `CCCC(C)Nc1nc(C)cc(N[C@@H](Cc2ccccc2)C(=O)NCc2cccc(F)c2)n1` (stereo partly drawn): the IC50 came to 880 nM.

With `COc1ccc2nc(C)cc(Nc3ccc(Oc4ccc5ccccc5c4Cl)c(Cl)c3)c2c1`, the IC50 worked out at 500 nM.

With `COc1ccc(Br)cc1C1Nc2ccc3ccccc3c2C2=C1C(=O)CC(c1ccccc1)C2` (stereo not drawn), the IC50 is 590 nM.

`Cc1cc(C)c(NC(=O)NC2CCN(CCCCCNC(=O)/C=C/c3ccc(Cl)c(Cl)c3)C2)c(C)c1` (stereo not drawn): the IC50 was 190 nM.

Compound `CC(=O)OCCN1C(=O)c2ccc3c4c(ccc(c24)C1=O)C(=O)N(CCOC(C)=O)C3=O` had an IC50 of 240 nM.

Take `Cc1cccc2[nH]c(-c3ccc(-c4ccc(C(=O)NCCN5CCCC5)cc4)cc3)nc12`: the IC50 was determined as 520 nM. This IC50 lies about 2.2-fold higher than the previous one.

For `O=C(/C=C/c1ccc(Cl)c(Cl)c1)Nc1cccc(CN2CCC(c3c[nH]c4ccc(O)cc34)CC2)c1`, the IC50 worked out at 940 nM.

`COc1ccc(-c2cccc(NC(=O)c3cccc(C#N)c3)c2)cc1CNC(C)C` had an IC50 of 690 nM.

`O=C(/C=C/c1ccc(Cl)c(Cl)c1)NCCCCCN1CCC(NC(=O)Nc2cccc(Cl)c2F)CC1`: the IC50 was found to be 380 nM.

Turning to `Cc1ccccc1Cn1c(CN2CCC(C(=O)NC3CC3)CC2)cc2ccccc21`, the IC50 came to 480 nM. The IC50 values of the last two compounds are within 1.5-fold of each other.

`O=C(NCc1ccccc1)Nc1ccc(-c2ccc(-c3nc4ccc(C(F)(F)F)cc4[nH]3)cc2)cc1`: the IC50 turned out to be 670 nM.

Regarding `CCc1c(CCNCCCCCCNCc2ccc3c(c2CC)OCO3)ccc(OC)c1OC`, the IC50 was 250 nM. Against the preceding compound, the IC50 is about 2.7-fold lower.

Consider `O=C(Nc1ccc(-c2ccc(-c3nc4ccccc4[nH]3)s2)cc1)Nc1ccc(F)c(F)c1F`, for which the IC50 amounted to 190 nM. The IC50 values of the last two compounds are within 1.5-fold of each other.

Take `COc1cccc(C(=O)NCCc2cccc(Cl)c2)c1OCc1ccccc1`: the IC50 is 1260 nM.

The compound `C[C@@H](CNc1ccnc(Nc2ccc3[nH]c(=O)[nH]c3c2)n1)c1ccccc1` registered an IC50 of 1100 nM.

The compound `COc1ccc(C(=O)NCc2ccccc2-c2ccc(C(C)(C)C)cc2)cc1O` showed an IC50 of 100 nM. Against the preceding compound, the IC50 is about 11-fold lower.

Compound `Cc1nccn1Cc1cc(C(C)(C)C)c(O)c(C(C)(C)C)c1` registered a concentration for half-maximal inhibition (IC50) of 790 nM.

`Cc1cc(=O)c(-c2ccc(OCc3ccc(Cl)cc3)cc2)c(C)[nH]1` yielded an IC50 of 730 nM.

In turn, `CCc1ccc(C(=O)Nc2cccc(CN3CCCN(Cc4ccc(O)cc4)CC3)c2)cc1` yielded an IC50 of 1030 nM. This IC50 and that of the compound before are within 1.5-fold of each other.

Compound `c1ccc(-c2[nH]ncc2Nc2ccnc3ccccc23)nc1` showed an IC50 of 820 nM.

As for `COc1ccc2ncc(F)c([C@H](O)CN3CCC(NCc4ccc5c(c4)NC(=O)CS5)CC3)c2c1`, the IC50 came to 190 nM.

The compound `c1ccc(CCNCc2cccc(-c3ccccc3CNCc3ccc4c(c3)OCO4)c2)nc1` returned an IC50 of 970 nM.

With `COc1ccc(-c2cnc3ccc(NCc4ccc(F)cc4)nn23)cc1OC`, the IC50 is 830 nM.

For the compound `O=C(Nc1nc2ccc(Cl)cc2s1)c1csnn1`, the IC50 is 790 nM.

As for `CC(CNc1ccnc(Nc2ccc3[nH]c(=O)[nH]c3c2)n1)c1ccccc1` (stereo not drawn), the IC50 is 700 nM.

Regarding `COc1cc(CNCCC(C)C)ccc1OCc1cccc(COc2ccc(CNCCC(C)C)cc2OC)c1`, the IC50 amounted to 490 nM.

The compound `N=c1sc2ccccc2n1CC(O)c1ccc(Cl)c(Cl)c1` (stereo not drawn) registered an IC50 of 800 nM.

`Nc1nc(N)c2c(n1)CCc1cc(Br)ccc1-2` yielded an IC50 of 1130 nM.

As to `O=C1C(c2ccccc2)=C(Nc2ccc([N+](=O)[O-])cc2)c2ccccc21`, the IC50 amounted to 870 nM.

For the compound `COc1cc2c(cc1CCNCCCCNCCc1cc3c(cc1OC)CCCC3)CCCC2`, the IC50 was found to be 1000 nM.

For the compound `CCN(CC)CCNc1ccnc2c3ccccc3n(C)c12`, the IC50 amounted to 240 nM. This IC50 lies about 4.2-fold lower than the previous one.

`CN1CCC(c2c[nH]c3ccc(NC(=O)Nc4ccc(-c5ccncc5)c(Cl)c4Cl)cc23)CC1` returned an IC50 of 700 nM. Compared with the last compound, the IC50 is about 2.9-fold higher.

On to `Cc1cc(NCC2CCN(CC3CCCCC3)C2)nc(Nc2ccc(Cl)cc2)n1` (stereo not drawn), for which the IC50 was 740 nM. This IC50 and that of the compound before are within 1.5-fold of each other.

As to `COc1ccc2nccc([C@@H](O)CN3CCC(NCC(O)Cc4ccccc4)CC3)c2c1` (stereo partly drawn), the IC50 is 670 nM. The IC50 values of the last two compounds are within 1.5-fold of each other.

`CCOC(=O)N1NC(=O)N(c2ccccc2)C1(c1ccccc1)c1ccccc1` returned an IC50 of 700 nM.

As for `Cc1ccc2c(c1C)NC(=O)C21NN=C(c2ccccc2)S1` (stereo not drawn), the IC50 was found to be 750 nM. This IC50 and that of the compound before are within 1.5-fold of each other.

With `CC(C)c1cc2c(cc1O)C(Cc1ccccc1Cl)N(C)CC2` (stereo not drawn), the IC50 turned out to be 730 nM.

In turn, `COc1ccc(-c2ccc(NC(=O)c3ccc(Cl)cc3)cc2)cc1CN1CCC(O)CC1` gave an IC50 of 1090 nM.

The compound `Cc1ccc(C[C@H](C)NC[C@H](O)c2cccc(C(F)(F)F)c2)cc1` came in with an IC50 of 980 nM.

On to `Oc1ccc(CCNc2nc(NCCCOc3ccccc3-c3ccc(F)cc3)nc(N3CCNCC3)n2)cc1`, for which the IC50 is 1080 nM.

As to `O=C(Nc1ccc(Cl)cc1)Nc1nc2ccc([N+](=O)[O-])cc2[nH]1`, the IC50 stood at 800 nM.

`O=C(NC1CCCCC1)N(Cc1cccc(-c2ccc(CNCc3ccc4c(c3)OCO4)cc2)c1)C1CCN(Cc2ccccc2)CC1` displayed an IC50 of 790 nM.

For `COC(=O)c1cccc(CNCc2ccc(-c3cccc(-c4nc5ccccc5[nH]4)c3)cc2)c1`, the IC50 was determined as 260 nM.

As for `COc1ccc2ncc(F)c(CCN3C[C@H](CNCc4ccc(F)cc4)[C@H](O)C3)c2n1`, the IC50 came out at 820 nM.

Regarding `CC(C)[C@@H](C(=O)NCc1cccc(C(F)(F)F)c1)N1C(=O)CCC1C(=O)Nc1ccc([N+](=O)[O-])cc1` (stereo partly drawn), the IC50 was 930 nM.

Compound `CCOc1ccc(-c2n[nH]c(C(F)(F)F)c2-c2ccccc2OC)c(O)c1` registered an IC50 of 1140 nM.

Compound `CC1CN(Cc2ccc(-c3ccc(-c4nc5ccc(F)cc5[nH]4)s3)cc2)CC(C)O1` (stereo not drawn) returned an IC50 of 880 nM.

`COc1ccc(Cc2cnc(N)nc2N)cc1OCCCOc1ccccc1`: the IC50 worked out at 910 nM.

`c1ccc(-c2cc(NCCCCCCCCNc3cc(-c4ccccc4)nc4ccccc34)c3ccccc3n2)cc1` gave an IC50 of 390 nM.

For the compound `CC(C)Cn1c(N)cc(=O)n(C)c1=O`, the IC50 turned out to be 980 nM.

For `Cc1ccc(CNC(=O)[C@H](CCCN)Nc2nc(NCC3CCCCC3)ncc2C)cc1`, the IC50 amounted to 990 nM.

Take `CCOc1ccc(Br)cc1/C=C/C(=O)Nc1ccc2c(c1)CCCN(C)C2`: the IC50 turned out to be 1050 nM. The IC50 values of the last two compounds are within 1.5-fold of each other.

For `Cc1cc(N(C)C2CCN(C)CC2)nc(Nc2ccc(Cl)cc2)n1`, the IC50 was 290 nM.

As to `CCOc1cc(O)c(-c2nc(N)ncc2-c2ccc3c(c2)OCCO3)cc1CC`, the IC50 turned out to be 730 nM.

In turn, `CN(C)Cc1ccc(-c2cccc(NC(=O)c3cccc(Cl)c3)c2)cc1` registered an IC50 of 690 nM.

Turning to `COc1cc(NC(=O)/C=C/c2ccccc2OC(F)(F)F)cc(OCCN2CCCCC2)c1`, the IC50 is 190 nM.

Compound `COC(=O)c1ccc(CC(C)NCC(O)c2cccc(C(F)(F)F)c2)c(OC)c1` (stereo not drawn) showed an IC50 of 800 nM. Against the preceding compound, the IC50 is about 4.2-fold higher.

`O=C(Nc1ccc(-c2nc3ccccc3[nH]2)cc1)c1ccc(N2CCCC2)c([N+](=O)[O-])c1`: the IC50 was 680 nM.

In turn, `CCOC(=O)c1[nH]c(-c2ccccc2)nc1-n1nc(C)cc1C` gave an IC50 of 690 nM.

Compound `Cc1ccc(NC(=O)c2c(C)noc2-c2snnc2C)cc1` yielded an IC50 of 1370 nM. Compared with the last compound, the IC50 is about 2-fold higher.
